Patent US20160151335A1, “METHODS OF MODULATING CFTR ACTIVITY” (PROTEOSTASIS THERAPEUTICS, INC., priority 2013, published 2016)

The compounds below were run against T1, ΔF508-CFTR (Homo sapiens, UniProt P13569, DEL508-508) (assay: hBE equivalent current (Ieq) assay, AUC of equivalent chloride current). Conditions: compound at 10 uM, 24 h, primary hBE cells homozygous ΔF508; AUC increase relative to VX-809 at 1 uM.
T1 construct: Primary lung epithelial cells (hBEs) homozygous for the Cystic Fibrosis-causing ΔF508 mutation; endogenous in cells; host or cells: primary lung (bronchial) epithelial cells (hBE) homozygous for ΔF508, differentiated at an air-liquid interface
T1 sequence (P13569 with tags, fused parts or gaps DEL508-508): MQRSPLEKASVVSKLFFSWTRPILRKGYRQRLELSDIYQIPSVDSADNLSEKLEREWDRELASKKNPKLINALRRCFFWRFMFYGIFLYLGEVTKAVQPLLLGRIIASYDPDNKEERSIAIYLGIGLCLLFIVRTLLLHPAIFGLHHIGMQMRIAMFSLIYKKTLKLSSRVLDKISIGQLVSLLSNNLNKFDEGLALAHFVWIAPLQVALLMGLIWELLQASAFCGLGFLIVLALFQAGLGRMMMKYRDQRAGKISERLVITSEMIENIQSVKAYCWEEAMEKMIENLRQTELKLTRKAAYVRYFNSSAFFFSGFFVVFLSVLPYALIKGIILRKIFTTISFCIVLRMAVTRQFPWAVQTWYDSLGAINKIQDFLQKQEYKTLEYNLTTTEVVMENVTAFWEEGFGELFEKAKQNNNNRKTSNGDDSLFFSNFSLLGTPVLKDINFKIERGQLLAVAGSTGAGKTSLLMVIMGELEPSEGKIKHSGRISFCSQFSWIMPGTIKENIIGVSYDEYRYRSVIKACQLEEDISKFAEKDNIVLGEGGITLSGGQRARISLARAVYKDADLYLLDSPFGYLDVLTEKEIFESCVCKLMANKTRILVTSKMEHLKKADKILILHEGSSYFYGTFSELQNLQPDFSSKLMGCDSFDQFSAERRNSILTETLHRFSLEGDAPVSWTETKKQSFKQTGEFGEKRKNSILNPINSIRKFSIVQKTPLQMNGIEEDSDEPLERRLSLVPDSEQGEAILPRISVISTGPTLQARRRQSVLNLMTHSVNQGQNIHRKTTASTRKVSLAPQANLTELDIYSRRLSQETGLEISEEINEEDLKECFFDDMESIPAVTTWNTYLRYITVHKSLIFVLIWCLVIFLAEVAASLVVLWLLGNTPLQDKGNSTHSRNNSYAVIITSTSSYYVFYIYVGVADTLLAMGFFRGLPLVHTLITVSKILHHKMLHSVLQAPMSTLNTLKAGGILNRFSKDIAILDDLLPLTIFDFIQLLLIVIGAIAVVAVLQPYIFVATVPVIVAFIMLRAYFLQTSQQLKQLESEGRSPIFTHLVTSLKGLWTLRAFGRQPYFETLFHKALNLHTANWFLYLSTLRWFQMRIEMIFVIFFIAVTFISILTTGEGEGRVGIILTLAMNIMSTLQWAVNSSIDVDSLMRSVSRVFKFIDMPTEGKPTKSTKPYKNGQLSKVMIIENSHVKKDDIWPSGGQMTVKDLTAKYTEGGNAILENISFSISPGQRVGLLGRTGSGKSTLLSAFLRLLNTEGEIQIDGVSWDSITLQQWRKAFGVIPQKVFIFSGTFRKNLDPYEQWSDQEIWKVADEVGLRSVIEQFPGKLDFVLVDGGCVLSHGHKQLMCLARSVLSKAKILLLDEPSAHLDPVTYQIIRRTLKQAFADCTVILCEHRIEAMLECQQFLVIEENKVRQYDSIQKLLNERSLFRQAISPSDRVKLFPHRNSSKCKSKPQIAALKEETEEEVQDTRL
Format: cell-based
Procedure: Primary lung epithelial cells homozygous for the Cystic Fibrosis-causing ΔF508 mutation were differentiated for a minimum of 4 weeks in an air-liquid interface on Costar 24 well HTS filter plates prior to the equivalent current (Ieq) measurements. Cells were apically mucus-washed for 30 minutes 24 h prior to treatment with compounds. The basolateral media was removed and replaced with media containing the compound of interest diluted to its final concentration from DMSO stocks. Treated cells were incubated at 37° C. and 5% CO2 for 24 hours. At the end of the treatment period, the media was changed to the Ieq experimental solution for 30 minutes before the experiment and plates are maintained in a CO2-free incubator during this period. The plates containing the cells were then placed in pre-warmed heating blocks at 36° C.±0.5 for 15 minutes before measurements are taken. The transepithelial voltage (VT) and conductance (GT) were measured using a custom 24 channel current clamp (TECC-24) with 24 well electrode manifold. The Ieq assay measurements were made following additions with standardized time periods: • 1. The baseline VT and GT values were measured for approximately 20 minutes. • 2. Benzamil was added to block ENaC for 15 minutes. • 3. Forskolin plus VX-770 were added to maximally activate ΔF508-CFTR for 27 minutes. • 4. Bumetanide was added to inhibit the NaK2Cl cotransporter and shut-off secretion of chloride. The activity data captured was the area under the curve (AUC) for the traces of the equivalent chloride current. The AUC was collected from the time of the forskolin/VX-770 addition until the inhibition by bumetanide addition. Correction in response to compound treatment was scored as the increase in the AUC for compound-treated samples over that of vehicle-treated samples. (++ indicates activity ≧25% run at 10 uM of VX-809 at 1 uM, + indicates activity 10 to ≦25% run at 10 uM of VX-809 at 1 uM.

Compound | Ieq hBE Activity
O=C(NCC1CCCO1)c1cc(-c2ccccc2)on1 (stereo not shown) [Compound 1] | ++ (++ indicates activity ≧25% run at 10 uM of VX-809 at 1 uM)
O=C(NC[C@@H]1CCCO1)c1cc(-c2ccccc2)on1 [Compound 2, (S)-5-phenyl-N-((tetrahydrofuran-2-yl)methyl)isoxazole-3-carboxamide] | ++ (++ indicates activity ≧25% run at 10 uM of VX-809 at 1 uM)
O=C(NCCN1CCOCC1)c1cc(-c2ccccc2)on1 [Compound 4] | ++ (++ indicates activity ≧25% run at 10 uM of VX-809 at 1 uM)
O=C(NCCN1CCOC1=O)c1cc(-c2ccccc2)on1 [Compound 5] | ++ (++ indicates activity ≧25% run at 10 uM of VX-809 at 1 uM)
O=C(NCCc1cnccn1)c1cc(-c2ccccc2)on1 [Compound 6] | ++ (++ indicates activity ≧25% run at 10 uM of VX-809 at 1 uM)
O=C(NCC(O)c1ccncc1)c1cc(-c2ccccc2)on1 (stereo not shown) [Compound 7] | ++ (++ indicates activity ≧25% run at 10 uM of VX-809 at 1 uM)
Cc1nnc(CCNC(=O)c2cc(-c3ccccc3)on2)s1 [Compound 8] | ++ (++ indicates activity ≧25% run at 10 uM of VX-809 at 1 uM)
CCn1nc(C)c(CCNC(=O)c2cc(-c3ccccc3)on2)c1C [Compound 10] | + (+ indicates activity 10 to ≦25% run at 10 uM of VX-809 at 1 uM)
COCc1noc(CCNC(=O)c2cc(-c3ccccc3)on2)n1 [Compound 11] | ++ (++ indicates activity ≧25% run at 10 uM of VX-809 at 1 uM)
O=C(NCCc1noc(C2CCCC2)n1)c1cc(-c2ccccc2)on1 [Compound 12] | ++ (++ indicates activity ≧25% run at 10 uM of VX-809 at 1 uM)
O=C(NCCCN1CCOCC1)c1cc(-c2ccccc2)on1 [Compound 13] | ++ (++ indicates activity ≧25% run at 10 uM of VX-809 at 1 uM)
O=C(NCCCN1CCOCC1)c1cc(-c2cccs2)on1 [Compound 14] | ++ (++ indicates activity ≧25% run at 10 uM of VX-809 at 1 uM)
O=C(NCCCn1ccnc1)c1cc(-c2ccc(F)cc2)on1 [Compound 15] | + (+ indicates activity 10 to ≦25% run at 10 uM of VX-809 at 1 uM)
Cn1c(CCCNC(=O)c2cc(-c3ccccc3)on2)nc2ccccc21 [Compound 17] | + (+ indicates activity 10 to ≦25% run at 10 uM of VX-809 at 1 uM)
COCCNC(=O)c1cc(-c2ccc(F)cc2)on1 [Compound 19] | ++ (++ indicates activity ≧25% run at 10 uM of VX-809 at 1 uM)
O=C(NCc1ccco1)c1cc(-c2ccccc2)on1 [Compound 20] | + (+ indicates activity 10 to ≦25% run at 10 uM of VX-809 at 1 uM)
Cn1ccc(CNC(=O)c2cc(-c3ccccc3)on2)n1 [Compound 27] | + (+ indicates activity 10 to ≦25% run at 10 uM of VX-809 at 1 uM)
CCCn1cc(CNC(=O)c2cc(-c3ccccc3)on2)cn1 [Compound 30] | + (+ indicates activity 10 to ≦25% run at 10 uM of VX-809 at 1 uM)
COCc1noc(CNC(=O)c2cc(-c3ccccc3)on2)n1 [Compound 35] | ++ (++ indicates activity ≧25% run at 10 uM of VX-809 at 1 uM)
CSCc1noc(CNC(=O)c2cc(-c3ccccc3)on2)n1 [Compound 36] | ++ (++ indicates activity ≧25% run at 10 uM of VX-809 at 1 uM)
O=C(NCc1ccccn1)c1cc(-c2ccccc2)on1 [Compound 41] | + (+ indicates activity 10 to ≦25% run at 10 uM of VX-809 at 1 uM)
O=C(NCC1CCCC1)c1cc(-c2ccccc2)on1 [Compound 51] | + (+ indicates activity 10 to ≦25% run at 10 uM of VX-809 at 1 uM)
O=C(NCC1CCOC1)c1cc(-c2ccccc2)on1 (stereo not shown) [Compound 52] | ++ (++ indicates activity ≧25% run at 10 uM of VX-809 at 1 uM)

Compound | Ieq hBE Activity
O=C(NCCC1CCOCC1)c1cc(-c2ccccc2)on1 [Compound 90] | ++ (++ indicates activity ≧25% run at 10 uM of VX-809 at 1 uM)
CN1CCN(CCNC(=O)c2cc(-c3ccccc3)on2)CC1 [Compound 92] | ++ (++ indicates activity ≧25% run at 10 uM of VX-809 at 1 uM)
O=C(NCCN1C(=O)CSC1=O)c1cc(-c2ccccc2)on1 [Compound 94] | + (+ indicates activity 10 to ≦25% run at 10 uM of VX-809 at 1 uM)
O=C(NCCc1ccccc1)c1cc(-c2ccccc2)on1 [Compound 95] | ++ (++ indicates activity ≧25% run at 10 uM of VX-809 at 1 uM)
NS(=O)(=O)c1ccc(CCNC(=O)c2cc(-c3ccccc3)on2)cc1 [Compound 97] | ++ (++ indicates activity ≧25% run at 10 uM of VX-809 at 1 uM)
O=C(NCCc1ccccn1)c1cc(-c2ccccc2)on1 [Compound 100] | + (+ indicates activity 10 to ≦25% run at 10 uM of VX-809 at 1 uM)
O=C(NCCc1cccnc1)c1cc(-c2ccccc2)on1 [Compound 101] | ++ (++ indicates activity ≧25% run at 10 uM of VX-809 at 1 uM)
O=C(NCCc1ccncc1)c1cc(-c2ccccc2)on1 [Compound 102] | ++ (++ indicates activity ≧25% run at 10 uM of VX-809 at 1 uM)
O=C(NCCc1csc(-c2ncccn2)n1)c1cc(-c2ccccc2)on1 [Compound 110] | ++ (++ indicates activity ≧25% run at 10 uM of VX-809 at 1 uM)
Cc1nn2cc(CCNC(=O)c3cc(-c4ccccc4)on3)nc2s1 [Compound 114] | ++ (++ indicates activity ≧25% run at 10 uM of VX-809 at 1 uM)
O=C(NCCn1nccn1)c1cc(-c2ccccc2)on1 [Compound 115] | ++ (++ indicates activity ≧25% run at 10 uM of VX-809 at 1 uM)
O=C(NCCc1c[nH]c2ccccc12)c1cc(-c2ccccc2)on1 [Compound 120] | ++ (++ indicates activity ≧25% run at 10 uM of VX-809 at 1 uM)
O=C(NCCCN1CCOCC1)c1cc(-c2ccc(F)cc2)on1 [Compound 128] | + (+ indicates activity 10 to ≦25% run at 10 uM of VX-809 at 1 uM)
O=C(NCCCN1CCOCC1)c1cc(-c2ccccc2F)on1 [Compound 135] | + (+ indicates activity 10 to ≦25% run at 10 uM of VX-809 at 1 uM)
COCCNC(=O)c1cc(-c2ccccc2F)on1 [Compound 150] | + (+ indicates activity 10 to ≦25% run at 10 uM of VX-809 at 1 uM)
COCCNC(=O)c1cc(-c2ccccc2OC)on1 [Compound 153] | ++ (++ indicates activity ≧25% run at 10 uM of VX-809 at 1 uM)
COCCNC(=O)c1cc(-c2ccc(C(F)(F)F)cc2)on1 [Compound 161] | + (+ indicates activity 10 to ≦25% run at 10 uM of VX-809 at 1 uM)
O=C(NCC(O)COCc1ccccc1)c1cc(-c2ccccc2)on1 (stereo not shown) [Compound 172] | + (+ indicates activity 10 to ≦25% run at 10 uM of VX-809 at 1 uM)
O=C(NCCCn1cccc1)c1cc(-c2ccccc2)on1 [Compound 186] | ++ (++ indicates activity ≧25% run at 10 uM of VX-809 at 1 uM)
Cn1nccc1CCCNC(=O)c1cc(-c2ccccc2)on1 [Compound 188] | ++ (++ indicates activity ≧25% run at 10 uM of VX-809 at 1 uM)
O=C(NCCCn1cccn1)c1cc(-c2ccccc2)on1 [Compound 189] | ++ (++ indicates activity ≧25% run at 10 uM of VX-809 at 1 uM)
Cc1nc(CCCNC(=O)c2cc(-c3ccccc3)on2)sc1C [Compound 191] | ++ (++ indicates activity ≧25% run at 10 uM of VX-809 at 1 uM)
O=C(NCCCn1cncn1)c1cc(-c2ccccc2)on1 [Compound 192] | ++ (++ indicates activity ≧25% run at 10 uM of VX-809 at 1 uM)
